Measured values: patent publication US8901118B2, “Compounds and methods for kinase modulation, and indications therefor” (Plexxikon Inc., priority 2010, dated 2014)

Assay: Relative solubility by turbidity in aqueous buffers (pH 1.5, 4.5, 6.8, 7.4)
Assay type: physicochemical
Conditions: for turbidity threshold (L, M, H) 1.4: pH 1.5 (SGF); for turbidity threshold (L, M, H) 4.5: pH 4.5 (SIF); for turbidity threshold (L, M, H) 6.8: pH 6.8 (SIF); for turbidity threshold (L, M, H) 7.4: pH 7.4 (HEPES)
Procedure, shortened: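 Twofold DMSO dilutions of a 25 mM stock were spiked into SGF (0.5M NaCl, pH 1.5), SIF (0.05M NaH2PO4, pH 4.5 and 6.8) or HEPES buffer (10 mM HEPES, 150 mM NaCl, pH 7.4). Absorbance was read at 490, 535 and 650 nm. The endpoint is the concentration crossing O.D. 0.01, averaged across wavelengths.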

| Structure (SMILES) | turbidity threshold (L, M, H) 1.4 | turbidity threshold (L, M, H) 4.5 | turbidity threshold (L, M, H) 6.8 | turbidity threshold (L, M, H) 7.4 |
| --- | --- | --- | --- | --- |
| Clc1cnc2[nH]cc(Cc3cnc(NC4CCCCC4)nc3)c2c1 [Compound P-3001, [5-(5-chloro-1H-pyrrolo[2,3-b]pyridin-3-ylmethyl)-pyrimidin-2-yl]-cyclohexyl-amine] | H (high solubility if the threshold concentration is >250 μm) | L (low solubility if the threshold concentration is <31.3 μM) | L (low solubility if the threshold concentration is <31.3 μM) | L (low solubility if the threshold concentration is <31.3 μM) |
| COc1ccc(Nc2ccc(C(=O)c3c[nH]c4ncc(C)cc34)c(F)n2)cn1 [Compound P-3040, [2-Fluoro-6-(6-methoxy-pyridin-3-ylamino)-pyridin-3-yl]-(5-methyl-1H-pyrrolo[2,3-b]pyridin-3-yl)-methanone] | M (moderate solubility if the threshold concentration is 31.3 μM to 250 μM) | M (moderate solubility if the threshold concentration is 31.3 μM to 250 μM) | M (moderate solubility if the threshold concentration is 31.3 μM to 250 μM) | M (moderate solubility if the threshold concentration is 31.3 μM to 250 μM) |
| Cc1cnc2[nH]cc(C(=O)c3ccc(Nc4ccc(C)nc4)nc3F)c2c1 [Compound P-3043, [2-Fluoro-6-(6-methyl-pyridin-3-ylamino)-pyridin-3-yl]-(5-methyl-1H-pyrrolo[2,3-b]pyridin-3-yl)-methanone] | M (moderate solubility if the threshold concentration is 31.3 μM to 250 μM) | M (moderate solubility if the threshold concentration is 31.3 μM to 250 μM) | M (moderate solubility if the threshold concentration is 31.3 μM to 250 μM) | M (moderate solubility if the threshold concentration is 31.3 μM to 250 μM) |
| Cc1ccc(Nc2ccc(C(=O)c3c[nH]c4ncc(Cl)cc34)c(F)n2)cn1 [Compound P-3044, (5-Chloro-1H-pyrrolo[2,3-b]pyridin-3-yl)-[2-fluoro-6-(6-methyl-pyridin-3-ylamino)-pyridin-3-yl]-methanone] | L (low solubility if the threshold concentration is <31.3 μM) | L (low solubility if the threshold concentration is <31.3 μM) | L (low solubility if the threshold concentration is <31.3 μM) | M (moderate solubility if the threshold concentration is 31.3 μM to 250 μM) |
| CCOc1ccc(Nc2ccc(C(=O)c3c[nH]c4ncc(C)cc34)c(F)n2)cn1 [Compound P-3045, [6-(6-ethoxy-pyridin-3-ylamino)-2-fluoro-pyridin-3-yl]-(5-methyl-1H-pyrrolo[2,3-b]pyridin-3-yl)-methanone] | M (moderate solubility if the threshold concentration is 31.3 μM to 250 μM) | M (moderate solubility if the threshold concentration is 31.3 μM to 250 μM) | M (moderate solubility if the threshold concentration is 31.3 μM to 250 μM) | L (low solubility if the threshold concentration is <31.3 μM) |
| COc1ccc(Nc2ccc(Cc3c[nH]c4ncnc(C)c34)c(F)n2)cn1 [Compound P-4002, [6-Fluoro-5-(4-methyl-7H-pyrrolo[2,3-d]pyrimidin-5-ylmethyl)-pyridin-2-yl]-(6-methoxy-pyridin-3-yl)-amine] | H (high solubility if the threshold concentration is >250 μm) | M (moderate solubility if the threshold concentration is 31.3 μM to 250 μM) | M (moderate solubility if the threshold concentration is 31.3 μM to 250 μM) | M (moderate solubility if the threshold concentration is 31.3 μM to 250 μM) |
| COc1ccc(Nc2ccc(C(=O)c3c[nH]c4ncnc(C5CC5)c34)c(F)n2)cn1 [Compound P-4022, (4-cyclopropyl-7H-pyrrolo[2,3-d]pyrimidin-5-yl)-[2-fluoro-6-(6-methoxy-pyridin-3-ylamino)-pyridin-3-yl]-methanone] | H (high solubility if the threshold concentration is >250 μm) | M (moderate solubility if the threshold concentration is 31.3 μM to 250 μM) | L (low solubility if the threshold concentration is <31.3 μM) | L (low solubility if the threshold concentration is <31.3 μM) |
| COc1ccc(Nc2ccc(Cc3c[nH]c4ncnc(C5CC5)c34)c(F)n2)cn1 [Compound P-4023, [5-(4-cyclopropyl-7H-pyrrolo[2,3-d]pyrimidin-5-ylmethyl)-6-fluoro-pyridin-2-yl]-(6-methoxy-pyridin-3-yl)-amine] | H (high solubility if the threshold concentration is >250 μm) | M (moderate solubility if the threshold concentration is 31.3 μM to 250 μM) | L (low solubility if the threshold concentration is <31.3 μM) | L (low solubility if the threshold concentration is <31.3 μM) |
| CCOc1ccc(Nc2ccc(C(=O)c3c[nH]c4ncnc(OC)c34)c(F)n2)cn1 [Compound P-4024, [6-(6-Ethoxy-pyridin-3-ylamino)-2-fluoro-pyridin-3-yl]-(4-methoxy-7H-pyrrolo[2,3-d]pyrimidin-5-yl)-methanone] | M (moderate solubility if the threshold concentration is 31.3 μM to 250 μM) | L (low solubility if the threshold concentration is <31.3 μM) | M (moderate solubility if the threshold concentration is 31.3 μM to 250 μM) | M (moderate solubility if the threshold concentration is 31.3 μM to 250 μM) |
| CCOc1ncnc2[nH]cc(C(=O)c3ccc(Nc4ccc(OC)nc4)nc3F)c12 [Compound P-4025, (4-Ethoxy-7H-pyrrolo[2,3-d]pyrimidin-5-yl)-[2-fluoro-6-(6-methoxy-pyridin-3-ylamino)-pyridin-3-yl]-methanone] | M (moderate solubility if the threshold concentration is 31.3 μM to 250 μM) | L (low solubility if the threshold concentration is <31.3 μM) | L (low solubility if the threshold concentration is <31.3 μM) | L (low solubility if the threshold concentration is <31.3 μM) |
| CCn1cc(Nc2ccc(Cc3c[nH]c4ncnc(C5CC5)c34)c(F)n2)cn1 [Compound P-4036, [5-(4-Cyclopropyl-7H-pyrrolo[2,3-d]pyrimidin-5-ylmethyl)-6-fluoro-pyridin-2-yl]-(1-ethyl-1H-pyrazol-4-yl)-amine] | H (high solubility if the threshold concentration is >250 μm) | M (moderate solubility if the threshold concentration is 31.3 μM to 250 μM) | L (low solubility if the threshold concentration is <31.3 μM) | L (low solubility if the threshold concentration is <31.3 μM) |
